Key:
[1] = tested on: scratching behaviors in FADS mice; assay: Scratching behaviors in FADS mice upon repeated systemic administration of CP4715; assay type: in vivo, mouse (FADS, Nestin-cre/Ikk2ff); settings: at 1 week and 2 weeks after administration; 107.4 μmol/kg twice a day under the dorsal skin; Mann-Whitney's U-test vs diluent control; FIG. 1
Source text: (§1) Nestin-cre transgenic mice were crossed with IKK2^ff mice to prepare Nestin-cre/Ikk2^ff mice specifically lacking IKK2 in their facial skin fibroblasts (Nunomura S, et al. J Invest Dermatol. 139:1274-1283, 2019). These mice inevitably develop atopic dermatitis-like rash limited to the face and intense itchy symptoms, and were therefore designated as Facial Atopic Dermatitis with Scratching (FADS) mice. […] For evaluation of the prophylactic or therapeutic agent of the present invention, FADS mice at 3 to 4 weeks of age or older were used because of showing spontaneous scratching behaviors. It should be noted that in this Example section, the above compound of formula (I) (more particularly “CP4715”) was used as the prophylactic or therapeutic agent of the present invention.
FADS mice were acclimated for 20 minutes to the environment of a recording cage, and then recorded with a video camera. The recorded videos were replayed, and scratching behaviors were counted assuming that hind paw scratching to the face and the subsequent movement of toe licking or paw lowering to the ground were regarded as one cycle of scratching behavior. […]
At 1 week and 2 weeks after drug administration, the mice were recorded for 60 minutes and analyzed to calculate the number of scratchings per minute for evaluation. […]

[2] = tested on: scratching behaviors in FADS mice; assay: Scratching behaviors in FADS mice upon single systemic administration of CP4715; assay type: in vivo, mouse (FADS, Nestin-cre/Ikk2ff); settings: 53.7 μmol/kg i.p., FIG. 2
Source text: Nestin-cre transgenic mice were crossed with IKK2^ff mice to prepare Nestin-cre/Ikk2^ff mice specifically lacking IKK2 in their facial skin fibroblasts (Nunomura S, et al. J Invest Dermatol. 139:1274-1283, 2019). These mice inevitably develop atopic dermatitis-like rash limited to the face and intense itchy symptoms, and were therefore designated as Facial Atopic Dermatitis with Scratching (FADS) mice. […] For evaluation of the prophylactic or therapeutic agent of the present invention, FADS mice at 3 to 4 weeks of age or older were used because of showing spontaneous scratching behaviors. […]
(§2) FADS mice were acclimated for 20 minutes to the environment of a recording cage, and then recorded with a video camera. The recorded videos were replayed, and scratching behaviors were counted assuming that hind paw scratching to the face and the subsequent movement of toe licking or paw lowering to the ground were regarded as one cycle of scratching behavior.
Prior to CP4715 administration, FADS mice were recorded for 60 minutes and then allowed to rest for 30 minutes. […] Mice administered with 0.3 mL of PBS containing an equal amount of the diluent as calculated based on the body weight were used as a control group.
The mice were recorded for 80 minutes immediately after drug administration. […]

[3] = tested on: neurons in the posterior horn surface of the spinal cord; assay: In vivo extracellular recording from the posterior horn surface of the spinal cord in FADS mice (spontaneous firing); design: species or system mouse (FADS); settings: 53.7 μmol/kg i.p.; FIG. 3
Experimental: In Vivo Extracellular Recording from the Posterior Horn Surface of the Spinal Cord in FADS Mice
FADS mice were administered intraperitoneally with 1.5 g/kg of urethane and anesthetized, followed by dorsal lumbar laminectomy. The first to sixth lumbar vertebrae were exposed, and each mouse was set on a stereotaxic apparatus. Under a microscope, the dural, arachnoidal and pial membranes were removed, and the spinal cord surface was warmed at 36±1 °C, followed by perfusion at 15 to 20 mL/min with an artificial cerebrospinal fluid (composition: NaCl (117 mM), KCl (3.6 mM), CaCl2) (2.5 mM), MgCl2 (1.2 mM), NaH2PO4 (1.2 mM), glucose (11 mM), NaHCO3 (25 mM)) saturated with 95% 02 to 5% CO2. Into the exposed spinal cord, a tungsten electrode (tip diameter: […], tip impedance: 9 to 12 MΩ) was inserted (latero-medial), and records were obtained from neurons in the posterior horn surface of the spinal cord.
CP4715 was dissolved at 89.5 mM in a diluent (physiological saline containing 50% DMSO and 89.5 mM hydrochloric acid), from which an amount corresponding to 53.7 μmol/kg per mouse was then taken and diluted with 0.3 mL of physiological saline, and then administered intraperitoneally (i.p.). 0.3 mL of physiological saline containing an equal amount of the diluent as calculated based on the body weight was administered as a control. When recorded from the spinal cord posterior horn of the FADS mice, neurons with spontaneous firing could be recorded. When the above control solution was first administered intraperitoneally, there was little change in the frequency of spontaneous firing during 30 minutes after administration.

[4] = tested on: scratching behaviors in FADS mice; assay: Scratching behaviors in FADS mice upon repeated percutaneous administration of CP4715; assay type: in vivo, mouse (FADS, Nestin-cre/Ikk2ff); settings: 30 μL of 26.85 mM solution externally applied once a day for 28 days to facial rash lesions; FIG. 7
Source text: as §1, §2
CP4715 was dissolved in a diluent (5% DMSO/15% N-methyl-2-pyrrolidone/80% ethanol) to prepare a 26.85 mM solution. […] Before administration and on Days 3, 7, 14, 21 and 28 of administration, the number of scratchings during 60 minutes was counted for evaluation.

SMILES: COc1cc(C(=O)NC[C@H](NS(=O)(=O)c2ccccc2)C(=O)O)ccc1N1CCC(NC2=NCCCN2)CC1 [CP4715, (S)-3-(3-methoxy-4-(4-((1,4,5,6-tetrahydropyrimidin-2-yl)amino)piperidin-1-yl)benzamido)-2-(phenylsulfonamido)propanoic acid]
- scratching behaviors (number of scratchings per minute) [1]: significantly suppressed (P<0.05)
- time after administration until which the suppressive effect on scratching was sustained [2]: 60 min
- scratching behaviors (number of scratchings per minute) ([2]; at 20 minutes or later after administration, Mann-Whitney's U-test vs diluent control): significantly suppressed (P<0.05)
- time after administration at which firing returned to the initial frequency [3]: 60 min
- time after administration at which the frequency of firing started to decrease [3]: 20 min
- time after administration at which the frequency of firing was most strongly suppressed [3]: 40 min
- time-dependent enhancement of scratching behaviors [4]: suppressed
